According to PubChem BioAssay (NCI):
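At the GI50, growth is halved. TGI denotes the concentration required for complete inhibition of growth.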

Tests used:
Experiment in all cases: NCI anticancer screen, dose series, 384-well format
[1] = system: COLO 205 colon
[2] = system: SNB-19 CNS
[3] = system: HCT-15 colon
[4] = system: ACHN renal
[5] = system: NCI-H23 lung
[6] = system: RXF 393 renal
[7] = system: SK-MEL-5 melanoma
[8] = system: HS 578T breast
[9] = system: RPMI-8226 leukemia
[10] = system: PC-3 prostate
[11] = system: BT-549 breast
[12] = system: NCI/ADR-RES ovarian
[13] = system: MDA-MB-231 breast
[14] = system: UACC-257 melanoma
[15] = system: 786-0 renal
[16] = system: NCI-H522 lung
[17] = system: OVCAR-4 ovarian
[18] = system: U251 glioblastoma
[19] = system: K-562 leukemia
[20] = system: OVCAR-3 ovarian
[21] = system: MALME-3M melanoma
[22] = system: HOP-92 NSCLC
[23] = system: MOLT-4 leukemia
[24] = system: CCRF-CEM leukemia
[25] = system: M14 melanoma
[26] = system: EKVX NSCLC
[27] = system: SR leukemia
[28] = system: DU-145 prostate
[29] = system: KM12 colon
[30] = system: MDA-MB-435 melanoma
[31] = system: NCI-H322M lung
[32] = system: HT29 colon
[33] = system: SK-OV-3 ovarian
[34] = system: MDA-MB-468 breast
[35] = system: SK-MEL-28 melanoma
[36] = system: A498 renal
[37] = system: UO-31 renal
[38] = system: NCI-H460 NSCLC
[39] = system: TK-10 renal
[40] = system: T-47D breast
[41] = system: SF-539 CNS
[42] = system: SN12C renal
[43] = system: HCC-2998 colon
[44] = system: SF-295 CNS
[45] = system: SNB-75 CNS
[46] = system: IGROV1 ovarian
[47] = system: NCI-H226 lung
[48] = system: UACC-62 melanoma
[49] = system: SW-620 colon
[50] = system: LOX IMVI melanoma
[51] = system: CAKI-1 renal
[52] = system: A549 NSCLC
[53] = system: HOP-62 NSCLC
[54] = system: MCF7 breast
[55] = system: HCT-116 colon
[56] = system: OVCAR-8 ovarian
[57] = system: HL-60(TB) leukemia
[58] = system: SF-268 CNS

What does the source list for CNCc1ccc(-c2cc(-c3nc(-c4ccc(S(=O)(=O)C(C)C)cc4)cnc3N)on2)cc1?
GI50 [1]: 1040 nM; TGI [1]: 6580 nM; GI50 [2]: 1130 nM; TGI [2]: 2480 nM; GI50 [3]: 127 nM; TGI [3]: 315 nM; GI50 [4]: 151 nM; TGI [4]: 1240 nM; GI50 [5]: 162 nM; TGI [5]: 916 nM; GI50 [6]: 216 nM; TGI [6]: 791 nM; GI50 [7]: 1320 nM; TGI [7]: 2600 nM; GI50 [8]: 138 nM; TGI [8]: 454 nM; GI50 [9]: 132 nM; TGI [9]: 355 nM; GI50 [10]: 506 nM; TGI [10]: 2040 nM; GI50 [11]: 173 nM; TGI [11]: 489 nM; GI50 [12]: 1310 nM; TGI [12]: 2680 nM; GI50 [13]: 1210 nM; TGI [13]: 2730 nM; GI50 [14]: 248 nM; TGI [14]: 870 nM; GI50 [15]: 150 nM; TGI [15]: 486 nM; GI50 [16]: 6610 nM; TGI [16]: 20200 nM; GI50 [17]: 313 nM; TGI [17]: 1310 nM; GI50 [18]: 460 nM; TGI [18]: 1660 nM; GI50 [19]: 250 nM; TGI [19]: 1170 nM; GI50 [20]: 145 nM; TGI [20]: 1500 nM; GI50 [21]: 307 nM; TGI [21]: 1330 nM; GI50 [22]: 336 nM; TGI [22]: 1410 nM; GI50 [23]: 66.3 nM; TGI [23]: 204 nM; GI50 [24]: 40.9 nM; TGI [24]: 161 nM; GI50 [25]: 318 nM; TGI [25]: 1140 nM; GI50 [26]: 1000 nM; TGI [26]: 2230 nM; TGI [27]: 18.5 nM; GI50 [28]: 250 nM; TGI [28]: 1320 nM; GI50 [29]: 131 nM; TGI [29]: 559 nM; GI50 [30]: 484 nM; TGI [30]: 1600 nM; GI50 [31]: 139 nM; TGI [31]: 1180 nM; GI50 [32]: 324 nM; TGI [32]: 1060 nM; GI50 [33]: 242 nM; TGI [33]: 1360 nM; GI50 [34]: 570 nM; TGI [34]: 1850 nM; GI50 [35]: 1420 nM; TGI [35]: 2730 nM; GI50 [36]: 42.2 nM; TGI [36]: 183 nM; GI50 [37]: 285 nM; TGI [37]: 1400 nM; GI50 [38]: 57.5 nM; TGI [38]: 334 nM; GI50 [39]: 57.3 nM; TGI [39]: 347 nM; GI50 [40]: 10400 nM; TGI [40]: 22200 nM; GI50 [41]: 135 nM; TGI [41]: 310 nM; GI50 [42]: 1290 nM; TGI [42]: 5490 nM; GI50 [43]: 29.5 nM; TGI [43]: 192 nM; GI50 [44]: 1060 nM; TGI [44]: 4100 nM; GI50 [45]: 1150 nM; TGI [45]: 2380 nM; GI50 [46]: 211 nM; TGI [46]: 1340 nM; GI50 [47]: 3070 nM; TGI [47]: 9520 nM; GI50 [48]: 1060 nM; TGI [48]: 2240 nM; GI50 [49]: 267 nM; TGI [49]: 1260 nM; GI50 [50]: 303 nM; TGI [50]: 1400 nM; GI50 [51]: 735 nM; TGI [51]: 2050 nM; GI50 [52]: 427 nM; TGI [52]: 1810 nM; GI50 [53]: 291 nM; TGI [53]: 1460 nM; GI50 [54]: 105 nM; TGI [54]: 1250 nM; GI50 [55]: 242 nM; TGI [55]: 1330 nM; GI50 [56]: 534 nM; TGI [56]: 1770 nM; GI50 [57]: 114 nM; TGI [57]: 248 nM; GI50 [58]: 781 nM; TGI [58]: 2060 nM
